# In US9096524B2, “Anthelmintic agents and their use” (Intervet International B.V., priority 2009, dated 2015):
# Like-named read-outs stand apart in the source and are kept apart here.
# Test system: A. galli (intestinal roundworm of chicken) larval stage 3; O. dentatum (nodular worm of swine) larval stages 3 and 4
# Experiment: Activity against Ascaridia galli and Oesophagostomum dentatum larvae in vitro (minimum effective concentration)
# Type: cell-based
# [1] = in vitro, one or more of A. galli L3, O. dentatum L3, L4, threshold 7 μM, read-out: MEC (minimum effective concentration) against one or more of the tested nematodes
# [2] = read-out: MEC (minimum effective concentration) against one or more of the tested nematodes, in vitro, one or more of A. galli L3, O. dentatum L3, L4, threshold 1 μM
# [3] = read-out: MEC (minimum effective concentration) against one or more of the tested nematodes, in vitro, one or more of A. galli L3, O. dentatum L3, L4, threshold 7 μM
# [4] = read-out: MEC (minimum effective concentration) against two or more of the tested nematodes, in vitro, two or more of A. galli L3, O. dentatum L3, L4, threshold 1 μM
# [5] = in vitro, two or more of A. galli L3, O. dentatum L3, L4, threshold 1 μM, read-out: MEC (minimum effective concentration) against two or more of the tested nematodes
# [6] = in vitro, one or more of A. galli L3, O. dentatum L3, L4, threshold 1 μM, read-out: MEC (minimum effective concentration) against one or more of the tested nematodes
compound,measurement,setting,value
COc1cc(OC2CCN(C(=O)CCN3CCN(c4ccc(Cl)cc4F)CC3)CC2)ccc1[N+](=O)[O-] [Example 476],minimal effective concentration,[1],< 7 µM
"CC(C)(C)c1ccc(N2CCN(CCCC(=O)N3CC[C@@H](Nc4ccc([N+](=O)[O-])c(C(F)(F)F)c4)C3)CC2)cc1 [Example 168, 4-[4-(4-tert-butyl-phenyl)-piperazin-1-yl]-1-[(R)-3-(4-nitro-3-trifluoromethyl-phenylamino)-pyrrolidin-1-yl]-butan-1-one]",minimal effective concentration,[2],< 1 µM
same,minimal effective concentration,[3],< 7 µM
same,minimal effective concentration,[4],< 1 µM
COc1ccc(NC2CCN(C(=O)CCCN3CCN(c4ccc(C(F)(F)F)cc4)CC3)CC2)cc1 [Example 270],minimal effective concentration,[5],< 1 µM
N#Cc1ccc(N2CCN(C(=O)COC3CCN(c4ccc([N+](=O)[O-])c(C(F)(F)F)c4)CC3)CC2)cc1 [Example 180],minimal effective concentration,[6],< 1 µM
"CC(C)(C)c1ccc(N2CCCN(CCCC(=O)N3CCC(Nc4ccc([N+](=O)[O-])c(C(F)(F)F)c4)CC3)CC2)cc1 [Example 163, 4-[4-(4-tert-butyl-phenyl)-[1,4]diazepan-1-yl]-1-[4-(4-nitro-3-trifluoromethyl-phenylamino)-piperidin-1-yl]-butan-1-one]",minimal effective concentration,[2],< 1 µM
same,minimal effective concentration,[3],< 7 µM
same,minimal effective concentration,[4],< 1 µM
"CC(C)(C)c1ccc(N2CCC(CCC(=O)N3CCC(Nc4ccc([N+](=O)[O-])c(C(F)(F)F)c4)CC3)CC2)cc1 [Example 147, 3-[1-(4-tert-butyl-phenyl)-piperidin-4-yl]-1-[4-(4-nitro-3-trifluoromethyl-phenylamino)-piperidin-1-yl]-propan-1-one]",minimal effective concentration,[2],< 1 µM
same,minimal effective concentration,[3],< 7 µM
same,minimal effective concentration,[4],< 1 µM
COc1cc(NC2CCN(C(=O)CCN3CCN(c4ccc(C(F)(F)F)cc4)CC3)CC2)ccc1[N+](=O)[O-] [Example 382],minimal effective concentration,[1],< 7 µM
same,minimal effective concentration,[5],< 1 µM
O=C(CCCN1CCN(c2ccc(Cl)cc2)CC1)N1CC[C@H](Nc2ccc([N+](=O)[O-])c(C(F)(F)F)c2)C1 [Example 731],minimal effective concentration,[6],< 1 µM
COc1cc(NC2CCN(C(=S)CCN3CCN(c4ccc(OCc5ccccc5)cc4)CC3)CC2)ccc1[N+](=O)[O-] [Example 675],minimal effective concentration,[5],< 1 µM
CC(C)(C)c1ccc(N2CCN(CCC(=O)N3CCCN(c4ccc(SC(F)(F)F)cc4)CC3)CC2)cc1 [Example 1019],minimal effective concentration,[6],< 1 µM
CCOc1ccc(N2CCC(OCC(=S)N3CCC(Nc4ccc([N+](=O)[O-])c(C(F)(F)F)c4)CC3)CC2)cc1 [Example 694],minimal effective concentration,[6],< 1 µM
COc1ccc(N2CCN(CCC(=O)N3CCC(Oc4ccc([N+](=O)[O-])c(OCC(C)C)c4)CC3)CC2)cc1OC [Example 515],minimal effective concentration,[1],< 7 µM
CCOc1cc(NC2CCN(C(=O)CCN3CCC(c4ccc(C(C)(C)C)cc4)CC3)CC2)ccc1[N+](=O)[O-] [Example 400],minimal effective concentration,[6],< 1 µM
same,minimal effective concentration,[1],< 7 µM
O=C(CCCN1CCN(c2ccc(Cl)cc2)CC1)N1CCC(Nc2ccc(Cl)c(SC(F)(F)F)c2)CC1 [Example 359],minimal effective concentration,[6],< 1 µM
O=C(CCC1CCN(c2ccccc2)CC1)N1CCC(Nc2ccc([N+](=O)[O-])c(C(F)(F)F)c2)CC1 [Example 216],minimal effective concentration,[6],< 1 µM
same,minimal effective concentration,[5],< 1 µM
O=[N+]([O-])c1ccc(NC2CCN(S(=O)(=O)CCN3CCN(c4ccc(C(F)(F)F)cc4)CC3)CC2)cc1C(F)(F)F [Example 245],minimal effective concentration,[5],< 1 µM
"O=C(CCCN1CCN(c2ccc(C(F)(F)F)nc2)CC1)N1CCC(Nc2ccc([N+](=O)[O-])c(C(F)(F)F)c2)CC1 [Example 149, 1-[4-(4-nitro-3-trifluoromethyl-phenylamino)-piperidin-1-yl]-4-[4-(6-trifluoromethyl-pyridin-3-yl)-piperazin-1-yl]-butan-1-one]",minimal effective concentration,[2],< 1 µM
same,minimal effective concentration,[3],< 7 µM
same,minimal effective concentration,[4],< 1 µM
COc1ccc(N2CCN(CCC(=O)N3CCC(Oc4ccc([N+](=O)[O-])c(OCC(C)C)c4)CC3)CC2)cc1 [Example 516],minimal effective concentration,[6],< 1 µM
same,minimal effective concentration,[1],< 7 µM
N#Cc1ccc(NC2CCN(C(=O)CCCN3CCCN(c4ccc(Cl)cc4)CC3)CC2)cc1C(F)(F)F [Example 757],minimal effective concentration,[4],< 1 µM
"Cc1nc(NC2CCN(C(=O)CCCN3CCN(c4ccc(C(F)(F)F)cc4)CC3)CC2)ccc1[N+](=O)[O-] [Example 101, 1-[4-(6-methyl-5-nitro-pyridin-2-ylamino)-piperidin-1-yl]-4-[4-(4-trifluoromethyl-phenyl)-piperazin-1-yl]-butan-1-one]",minimal effective concentration,[2],< 1 µM
same,minimal effective concentration,[3],< 7 µM
same,minimal effective concentration,[4],< 1 µM
COc1ccc(N2CCN(CCC(=O)N3CC[C@H](Nc4ccc([N+](=O)[O-])c(C(F)(F)F)c4)C3)CC2)cc1 [Example 289],minimal effective concentration,[6],< 1 µM
same,minimal effective concentration,[5],< 1 µM
N#Cc1ccc(NC2CCN(C(=O)CCN3CCCN(c4ccc(Cl)cc4)CC3)CC2)cc1C(F)(F)F [Example 770],minimal effective concentration,[4],< 1 µM
